The structures appear in SMILES notation. Where a SMILES comes first, the peptide text is derived from it. Bridges are numbered along the chain shown (N, C = ends). [ ]: non-standard residue; d: D form. The star is where a group is joined. Phe(3-CF3) = N[C@@H](Cc1cccc(C(F)(F)F)c1)C(=O)O; Phe(4-COOH) = N[C@@H](Cc1ccc(C(=O)O)cc1)C(=O)O; Bip = N[C@@H](Cc1ccc(-c2ccccc2)cc1)C(=O)O; Phe(3-Cl) = N[C@@H](Cc1cccc(Cl)c1)C(=O)O; Phe(3-Me) = Cc1cccc(C[C@H](N)C(=O)O)c1; 3Pal = N[C@@H](Cc1cccnc1)C(=O)O; 4Pal = N[C@@H](Cc1ccncc1)C(=O)O; Cha = N[C@@H](CC1CCCCC1)C(=O)O; Cit = NC(=O)NCCC[C@H](N)C(=O)O; Carboxymethyl = O=C(O)C*; Orn = NCCC[C@H](N)C(=O)O; Dab = NCC[C@H](N)C(=O)O; Dap = NC[C@H](N)C(=O)O

T1 sequence (Q15116 25-288): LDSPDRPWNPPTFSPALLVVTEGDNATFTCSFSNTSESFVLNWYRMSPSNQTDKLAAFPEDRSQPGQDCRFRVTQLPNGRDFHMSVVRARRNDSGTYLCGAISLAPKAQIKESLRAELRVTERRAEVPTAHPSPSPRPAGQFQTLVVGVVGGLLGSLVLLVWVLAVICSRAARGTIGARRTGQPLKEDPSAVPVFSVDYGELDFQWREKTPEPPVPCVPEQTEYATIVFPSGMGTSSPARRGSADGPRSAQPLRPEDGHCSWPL

One assay concerns the target T1, human PD-1 / PD-L1-Ig binding on Jurkat cell line over-expressing human PD-1 (Jurkat-PD-1) (Homo sapiens, UniProt Q15116).
T1 construct: expressed in transfected cells; host or cells: Jurkat
As to the kind of experiment: Jurkat-PD-1 Cell Binding High-Content Screening Assay (CBA). The assay is classed as cell-based. The note with it: Jurkat HPD1_PDL1 IC50, Jurkat-PD-1 cells, PE-labeled PD-L1-Ig 20 nM final. In a few lines: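 Jurkat cells over-expressing human PD-1, in DMEM/10% FCS, pre-incubated with compound 2 h at 37° C. PE-labeled human PD-L1-Ig (20 nM final) added for 1 h; cells fixed in paraformaldehyde with Hoechst 33342 nuclear stain, washed, and bound fluorescence quantified by high-content imaging.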
The term IC50 denotes the concentration at which inhibition is half-maximal. `CC[C@H](C)[C@@H]1NC(=O)[C@H](Cc2ccc(-c3ccccc3)cc2)NC(=O)[C@H](C(C)C)NC(=O)[C@H](Cc2cccc(Cl)c2)NC(=O)[C@H](CC(=O)O)NC(=O)[C@H](Cc2ccc(C(=O)O)cc2)NC(=O)[C@H](Cc2ccncc2)NC(=O)CSC[C@@H](C(=O)N[C@@H](C)C(N)=O)NC(=O)[C@H]([C@@H](C)O)NC(=O)[C@H](C(C)C)NC(=O)[C@H](CC2CCCCC2)NC(=O)[C@H](CCN)NC(=O)[C@@H](CC(C)C)NC(=O)[C@H](CCCN)NC1=O` [Compound 1558]: the IC50 was determined as 15.8 nM.

`CC[C@H](C)[C@@H]1NC(=O)[C@H](Cc2ccc(-c3ccccc3)cc2)NC(=O)[C@H](C(C)C)NC(=O)[C@H](Cc2cccc(C(F)(F)F)c2)NC(=O)[C@H](CC(=O)O)NC(=O)[C@H](Cc2ccc(OCC(=O)O)cc2)NC(=O)[C@H](Cc2ccncc2)NC(=O)CSC[C@@H](C(=O)N[C@@H](C)C(N)=O)NC(=O)[C@H]([C@@H](C)O)NC(=O)[C@H](C(C)C)NC(=O)[C@H](CC2CCCCC2)NC(=O)[C@H](CCN)NC(=O)[C@@H](CC(C)C)NC(=O)[C@H](CCCN)NC1=O` [Compound 1567]: the IC50 amounted to 25.8 nM.

Compound `CC[C@H](C)[C@@H]1NC(=O)[C@H](Cc2ccc(-c3ccccc3)cc2)NC(=O)[C@H](C(C)C)NC(=O)[C@H](Cc2cccc(Cl)c2)NC(=O)[C@H](CC(=O)O)NC(=O)[C@H](Cc2ccc(OCC(=O)O)cc2)NC(=O)[C@H](Cc2ccc(OCC(=O)O)cc2)NC(=O)CSC[C@@H](C(=O)N[C@@H](C)C(N)=O)NC(=O)[C@H]([C@@H](C)O)NC(=O)[C@H](C(C)C)NC(=O)[C@H](CC2CCCCC2)NC(=O)[C@H](CCN)NC(=O)[C@@H](CC(C)C)NC(=O)[C@H](CCCN)NC1=O` [Compound 1568] had an IC50 of 24.5 nM.

The assay is the same for the next values; noted with them: Jurkat-PD-1 cells, PE-labeled PD-L1-Ig 20 nM final; read-out: Jurkat HPD1_PDL1 IC50.
Regarding `Cc1cccc(C[C@@H]2NC(=O)[C@H](CC(=O)O)NC(=O)[C@H](Cc3ccc(OCC(=O)O)cc3)NC(=O)[C@H](Cc3cccnc3)NC(=O)CSC[C@@H](C(N)=O)NC(=O)[C@H]([C@@H](C)O)NC(=O)[C@H](C(C)C)NC(=O)[C@H](CC(C)C)NC(=O)[C@H](CCN)NC(=O)[C@@H](CC(C)C)NC(=O)[C@H](CCCN)NC(=O)[C@H](C(C)C)NC(=O)[C@H](Cc3ccc(-c4ccccc4)cc3)NC(=O)[C@H](C(C)C)NC2=O)c1` [Compound 1553] ({CH2CO}-[3Pal]Y(Carboxymethyl)D[Phe(3-Me)]V[Bip]V[Orn][dL][Dab]LVTC-NH2; thioether N-14), the IC50 was 26.9 nM.

Take `CC[C@H](C)[C@@H]1NC(=O)[C@H](Cc2ccc(-c3ccccc3)cc2)NC(=O)[C@H](C(C)C)NC(=O)[C@H](Cc2cccc(C)c2)NC(=O)[C@H](CC(=O)O)NC(=O)[C@H](Cc2ccncc2)NC(=O)[C@H](CN)NC(=O)CSC[C@@H](C(N)=O)NC(=O)[C@H]([C@@H](C)O)NC(=O)[C@H](C(C)C)NC(=O)[C@H](CC(C)C)NC(=O)[C@H](CCN)NC(=O)[C@@H](CC(C)C)NC(=O)[C@H](CCCN)NC1=O` [Compound 1554] ({CH2CO}-[Dap][4Pal]D[Phe(3-Me)]V[Bip]I[Orn][dL][Dab]LVTC-NH2; thioether N-14): the IC50 amounted to 96.2 nM.

As to `CC[C@H](C)[C@@H]1NC(=O)[C@H](Cc2ccc(-c3ccccc3)cc2)NC(=O)[C@H](C(C)C)NC(=O)[C@H](Cc2cccc(C)c2)NC(=O)[C@H](CC(=O)O)NC(=O)[C@H](Cc2ccc(C(=O)O)cc2)NC(=O)[C@H](Cc2ccc(OCC(=O)O)cc2)NC(=O)CSC[C@@H](C(N)=O)NC(=O)[C@H]([C@@H](C)O)NC(=O)[C@H](C(C)C)NC(=O)[C@H](CC(C)C)NC(=O)[C@H](CCN)NC(=O)[C@@H](CC(C)C)NC(=O)[C@H](CCCN)NC1=O` [Compound 1555] ({CH2CO}-Y(Carboxymethyl)[Phe(4-COOH)]D[Phe(3-Me)]V[Bip]I[Orn][dL][Dab]LVTC-NH2; thioether N-14), the IC50 worked out at 43.3 nM.

Take `Cc1cccc(C[C@@H]2NC(=O)[C@H](CC(=O)O)NC(=O)[C@H](Cc3ccc(C(=O)O)cc3)NC(=O)[C@H](Cc3ccc(OCC(=O)O)cc3)NC(=O)CSC[C@@H](C(N)=O)NC(=O)[C@H]([C@@H](C)O)NC(=O)[C@H](C(C)C)NC(=O)[C@H](CC(C)C)NC(=O)[C@H](CCN)NC(=O)[C@@H](CC(C)C)NC(=O)[C@H](CCCN)NC(=O)[C@H](CCC(=O)O)NC(=O)[C@H](Cc3ccc(-c4ccccc4)cc3)NC(=O)[C@H](C(C)C)NC2=O)c1` [Compound 1556] ({CH2CO}-Y(Carboxymethyl)[Phe(4-COOH)]D[Phe(3-Me)]V[Bip]E[Orn][dL][Dab]LVTC-NH2; thioether N-14): the IC50 amounted to 90.9 nM.

Regarding `Cc1cccc(C[C@@H]2NC(=O)[C@H](CC(=O)O)NC(=O)[C@H](Cc3ccc(C(=O)O)cc3)NC(=O)[C@H](Cc3ccc(OCC(=O)O)cc3)NC(=O)CSC[C@@H](C(N)=O)NC(=O)[C@H]([C@@H](C)O)NC(=O)[C@H](C(C)C)NC(=O)[C@H](CC(C)C)NC(=O)[C@H](CCN)NC(=O)[C@@H](CC(C)C)NC(=O)[C@H](CCCN)NC(=O)[C@H](CCCNC(N)=O)NC(=O)[C@H](Cc3ccc(-c4ccccc4)cc3)NC(=O)[C@H](C(C)C)NC2=O)c1` [Compound 1557] ({CH2CO}-Y(Carboxymethyl)[Phe(4-COOH)]D[Phe(3-Me)]V[Bip][Cit][Orn][dL][Dab]LVTC-NH2; thioether N-14), the IC50 amounted to 37.9 nM.

With `CC[C@H](C)[C@@H]1NC(=O)[C@H](Cc2ccc(-c3ccccc3)cc2)NC(=O)[C@H](C(C)C)NC(=O)[C@H](Cc2cccc(C)c2)NC(=O)[C@H](CC(=O)O)NC(=O)[C@H](Cc2ccncc2)NC(=O)[C@H](CN)NC(=O)CSC[C@@H](C(=O)N[C@@H](C)C(N)=O)NC(=O)[C@H]([C@@H](C)O)NC(=O)[C@H](C(C)C)NC(=O)[C@H](CC2CCCCC2)NC(=O)[C@H](CCN)NC(=O)[C@@H](CC(C)C)NC(=O)[C@H](CCCN)NC1=O` [Compound 1561], the IC50 was found to be 16.2 nM.

With `CC[C@H](C)[C@@H]1NC(=O)[C@H](Cc2ccc(-c3ccccc3)cc2)NC(=O)[C@H](C(C)C)NC(=O)[C@H](Cc2cccc(Cl)c2)NC(=O)[C@H](CC(=O)O)NC(=O)[C@H](Cc2ccncc2)NC(=O)[C@H](CN)NC(=O)CSC[C@@H](C(=O)N[C@@H](C)C(N)=O)NC(=O)[C@H]([C@@H](C)O)NC(=O)[C@H](C(C)C)NC(=O)[C@H](CC2CCCCC2)NC(=O)[C@H](CCN)NC(=O)[C@@H](CC(C)C)NC(=O)[C@H](CCCN)NC1=O` [Compound 1562], the IC50 is 20.2 nM.

Regarding `CC[C@H](C)[C@@H]1NC(=O)[C@H](Cc2ccc(-c3ccccc3)cc2)NC(=O)[C@H](C(C)C)NC(=O)[C@H](Cc2cccc(OC)c2)NC(=O)[C@H](CC(=O)O)NC(=O)[C@H](Cc2ccncc2)NC(=O)[C@H](CN)NC(=O)CSC[C@@H](C(=O)N[C@@H](C)C(N)=O)NC(=O)[C@H]([C@@H](C)O)NC(=O)[C@H](C(C)C)NC(=O)[C@H](CC2CCCCC2)NC(=O)[C@H](CCN)NC(=O)[C@@H](CC(C)C)NC(=O)[C@H](CCCN)NC1=O` [Compound 1563], the IC50 was found to be 10.7 nM.

Regarding `CC[C@H](C)[C@@H]1NC(=O)[C@H](Cc2ccc(-c3ccccc3)cc2)NC(=O)[C@H](C(C)C)NC(=O)[C@H](Cc2cccc(C(F)(F)F)c2)NC(=O)[C@H](CC(=O)O)NC(=O)[C@H](Cc2ccncc2)NC(=O)[C@H](CN)NC(=O)CSC[C@@H](C(=O)N[C@@H](C)C(N)=O)NC(=O)[C@H]([C@@H](C)O)NC(=O)[C@H](C(C)C)NC(=O)[C@H](CC2CCCCC2)NC(=O)[C@H](CCN)NC(=O)[C@@H](CC(C)C)NC(=O)[C@H](CCCN)NC1=O` [Compound 1564] ({CH2CO}-[Dap][4Pal]D[Phe(3-CF3)]V[Bip]I[Orn][dL][Dab][Cha]VTCA-NH2; thioether N-14), the IC50 came to 36.1 nM.

With `CC(C)C[C@H]1NC(=O)[C@H](CCCN)NC(=O)[C@H](C(C)C)NC(=O)[C@H](Cc2ccc(-c3ccccc3)cc2)NC(=O)[C@H](C(C)C)NC(=O)[C@H](Cc2cccc(Cl)c2)NC(=O)[C@H](CC(=O)O)NC(=O)[C@H](Cc2ccc(C(=O)O)cc2)NC(=O)[C@H](Cc2ccc(OCC(=O)O)cc2)NC(=O)CSC[C@@H](C(=O)N[C@@H](C)C(N)=O)NC(=O)[C@H]([C@@H](C)O)NC(=O)[C@H](C(C)C)NC(=O)[C@H](CC2CCCCC2)NC(=O)[C@H](CCN)NC1=O` [Compound 1569], the IC50 was 16.4 nM.

For `CC(C)C[C@H]1NC(=O)[C@H](CCCN)NC(=O)[C@H](C(C)C)NC(=O)[C@H](Cc2ccc(-c3ccccc3)cc2)NC(=O)[C@H](C(C)C)NC(=O)[C@H](Cc2cccc(Cl)c2)NC(=O)[C@H](CC(=O)O)NC(=O)[C@H](Cc2ccncc2)NC(=O)[C@H](Cc2ccc(OCC(=O)O)cc2)NC(=O)CSC[C@@H](C(=O)N[C@@H](C)C(N)=O)NC(=O)[C@H]([C@@H](C)O)NC(=O)[C@H](C(C)C)NC(=O)[C@H](CC2CCCCC2)NC(=O)[C@H](CCN)NC1=O` [Compound 1570] ({CH2CO}-Y(Carboxymethyl)[4Pal]D[Phe(3-Cl)]V[Bip]V[Orn][dL][Dab][Cha]VTCA-NH2; thioether N-14), the IC50 came out at 18.4 nM.

In the case of `CC(C)C[C@H]1NC(=O)[C@H](CCCN)NC(=O)[C@H](C(C)C)NC(=O)[C@H](Cc2ccc(-c3ccccc3)cc2)NC(=O)[C@H](C(C)C)NC(=O)[C@H](Cc2cccc(C(F)(F)F)c2)NC(=O)[C@H](CC(=O)O)NC(=O)[C@H](Cc2ccc(C(=O)O)cc2)NC(=O)[C@H](Cc2ccc(OCC(=O)O)cc2)NC(=O)CSC[C@@H](C(=O)N[C@@H](C)C(N)=O)NC(=O)[C@H]([C@@H](C)O)NC(=O)[C@H](C(C)C)NC(=O)[C@H](CC2CCCCC2)NC(=O)[C@H](CCN)NC1=O` [Compound 1571], the IC50 amounted to 16.9 nM.

In the case of `Cc1cccc(C[C@@H]2NC(=O)[C@H](CC(=O)O)NC(=O)[C@H](Cc3ccc(OCC(=O)O)cc3)NC(=O)[C@H](Cc3ccc(OCC(=O)O)cc3)NC(=O)CSC[C@@H](C(=O)N[C@@H](C)C(N)=O)NC(=O)[C@H]([C@@H](C)O)NC(=O)[C@H](C(C)C)NC(=O)[C@H](CC3CCCCC3)NC(=O)[C@H](CCN)NC(=O)[C@@H](CC(C)C)NC(=O)[C@H](CCCN)NC(=O)[C@H](C(C)C)NC(=O)[C@H](Cc3ccc(-c4ccccc4)cc3)NC(=O)[C@H](C(C)C)NC2=O)c1` [Compound 1572], the IC50 stood at 17.2 nM.

Source of the values: patent publication US20250163104A1, “MACROCYCLIC IMMUNOMODULATORS” (priority 2021, published 2025).
